One test has as its system red blood cell. The test is described as follows: Red blood cell rigidity via chromium^51 labeling technique. The class given is cell-based.
For another test, the system named is perfused dog hind limb. The test is described as follows: Peripheral vasodilator activity, perfused dog hind limb (anesthetized dog). The class given is in vivo. The method, then: Test Method. Mongrol dogs of either sex weighing between 11 and 16 kg., each, were anesthetized with pentobarbital (30 mg./kg.) administered intravenously. The left brachial vein was cannulated and pentobarbital infused continuously throughout the experiment at a rate of 5 mg./kg./hr. A tracheotomy was performed and dogs ventilated mechanically with room air at a rate of 18 strokes/min. and a volume equivalent to 20 ml./kg. The vagi were sectioned bilaterally in the mid-cervical region of the neck. The right brachial vein and artery were cannulated to inject drugs and to monitor blood pressure via a Statham pressure transducer, respectively. All measurements were recorded on a Beckman-Offner dynograph. The abdominal aorta was exposed through midline incision and a loose ligature placed around the aorta distal to the left renal artery. The right (donor) and left (recipient) femoral arteries were exposed for cannulation and subsequent hind-limb perfursion. Following intravenous administration of heparin (5 mg/kg.) and gallamine triethiodide (2 mg./kg.), the right femoral artery was cannulated and the tip of the catheter advanced into the abdominal aorta to the level of the renal arteries. The left femoral artery was cannulated and the hind-limb perfused using a Harvard Perfusion pump. The ligature previously placed around the aorta was subsequently tied to minimize collateral circulation. […] Perfusion pressure, measured at a point distal to the perfusion pump was set equal to 150 mm Hg. by adjusting pump speed. Blood flow to the limb was determined volumetrically at the conclusion of the experiment. The test agent was administered by infusion at a rate of from 0.1-1.0 mg./min. for a six-minute period and maximum reduction in pressure determined. One to three animals were employed per test agent. […] This protocol precludes effects resulting from animal variation thus permitting a direct side-by-side comparison of vasodilating activity.

Test [1] deals with mesenteric arteries. Briefly: Basal tone of mesenteric arteries of dogs. Set-up: species or system dog. From the text: (§1) (b) The compound of Example 2 elevated basal tone of mesenteric arteries of dogs and rabbits. This effect is considered valuable in the treatment of peripheral and cerebral vascular diseases.
A further test has as its system rabbit thoracic aorta. Briefly: Isolated rabbit thoracic aorta, antispasmodic activity vs. potassium chloride. The conditions noted are these: for Antispasmodic Potency: potency relative to papaverine (equals one), from pA2 vs. potassium chloride. The class given is cell-based, rabbit (New Zealand White). On the procedure:
(§2) Test Method. Antispasmodic activity was assessed in vitro by determining the effect of the test substance on induced contraction of arterial smooth muscle as follows. Adult, male, New Zealand White rabbits (body weight 2.5-4 kg.) were used. Each rabbit was killed by i.v. air injection. The thorax was opened and the descending thoracic aorta removed and placed in Kreb's-bicarbonate solution. Extraneous tissue was removed and the aorta was cut spirally along its entire length. Four spiral segments, each approximately 2 cm. in length (unstretched), were obtained from each thoracic aorta. […] The bath medium surrounding the aortic spiral (Kreb's-bicarbonate solution) was maintained at 37.5°C. and constantly aerated with 95% O2 :5% CO2. Activity of the aortic smooth muscle was recorded on an electronic polygraph via its connection to the tension transducer. After an equilibration period of 60 min., a cumulative dose-response curve was obtained to an agonist (e.g. potassium chloride or norepinephrine) and the tissue then washed. Seventy-five min. later, a second cumulative dose-response curve to the agonist was obtained and the tissue washed again. Sixty min. later, a test drug solution was added to the tissue bath fluid and, after 15 min., drug exposure and, without washing, a third and final agonist-response curve was obtained. All additions to the bath fluid were 0.1 ml. volumes of aqueous solutions.

A further test has as its target T1, adrenergic beta-receptor (Cavia porcellus, UniProt Q8K4Z4).
T1 construct: Tracheas excised from adult guinea pigs; from tissue; host or cells: guinea pig trachea (spirally cut segments)
Briefly: Beta-adrenergic blocking activity in the isolated guinea pig trachea (isoproterenol). The class given is cell-based. As to conditions: for Beta-Adrenergic Blocking Potency: potency relative to propanol (equals one), isoproterenol 0.1 mcg./ml. The method, then:
Test Method. […] The lower end of a tracheal segment is fixed to a stationary glass rod and the upper end is threaded to an isometric tension transducer. Changes in the spontaneous tonus of the tracheal smooth muscle are monitored via the transducer and recorded continuously on an electronic recorder. Adrenergic beta-receptor blocking activity is determined by the ability of a test agent to inhibit the response of the isolated tissue to the adrenergic beta-stimulant "isoproterenol" at a concentration of 0.1 mcg./ml. bath fluid. The tissues are exposed to the test agent solution for a 15-min. interval prior to the addition of isoproterenol to the bath fluid. Beta-receptor blocking potency of a test drug is ascertained from concentration-response relationships wherein the response is expressed as a percent inhibition of isoproterenol-induced tissue response. […] Each drug solution is added to the tissue bathing medium at a constant volume of 0.2 ml./ml. of bath fluid and only one test drug concentration is employed for an individual tissue segment. Potency of the test agent relative to that of the beta-adrenergic blocking agent "propanolol" as a reference standard is assessed by comparing the IC50 values.

The next test has as its system rabbit eye. Briefly: Local anesthetic activity, topical application to the rabbit eye. The class given is in vivo.
For another test, the system named is platelet survival. The test is described as follows: Platelet survival time in rats with intra-arterial catheters. The class given is in vivo, rat. From the text:
(a) Rats with intra-arterial catheters have periods of shortened platelet survival time. This shortened survival time is normalized with the compound of Example 2.

The subject of test [2] is human platelet-rich plasma. The test is described as follows: Inhibition of platelet aggregation in vitro (ADP or collagen induced; antithrombogenic activity). The class given is cell-based. As to conditions: for ED50 ADP (inhibition of platelet aggregation): aggregation induced by 1 mcg. ADP; for ED50 Coll (inhibition of platelet aggregation): minimal amount of collagen producing maximal aggregation. The method, then:
Test Method. A method similar to that described in Born, Nature 194, 927 (1962) and O'Brien, J. Clinical Pathology 15, 446 (1962). This test comprises a nephelometric method in which the change in turbidity of a specimen of human platelet-rich plasma is measured on causation of platelet aggregation by addition of adenosine diphosphate (ADP) or collagen as the thrombogenic inducing agent. An increase in transmittance light occurs when the thrombogenic agent is added to the specimen of platelet-rich plasm due to clumping of platelets. Efficacy of the test compound is determined by ability to prevent the clumping and concommitant increase in transmittance. Various concentrations of the test agent are tested and that concentration causing a 50% reduction in the thrombogenic response is determined from a concentration-response curve.

In test [3] the test system is mesenteric arteries. Briefly: Basal tone of mesenteric arteries of rabbits. Set-up: species or system rabbit.
Description: as §1

For another test, the system named is guinea pig skin. The test is described as follows: Local anesthetic activity, intradermal infiltration of guinea pig skin. The class given is in vivo.
The next test concerns alpha-adrenergic. The test is described as follows: Isolated rabbit thoracic aorta, antispasmodic (anti-alpha-adrenergic) activity vs. norepinephrine. The class given is cell-based, rabbit (New Zealand White). The conditions noted are these: norepinephrine as agonist. The method, then: as §2, with “solutions. […] Selective activity against norepinephrine-induced spasms is indicative of alpha-adrenergic blocking (i.e. antispasmodic) activity. […] Phentolamine is an alpha-adrenergic blocking agent and a standard reference in the art. […] This experiment illustrates that the instant compounds are non-anti-alpha-adrenergic antispasmodic agents in that they have a substantial direct smooth muscle relaxant effect (as shown in Example 34) relatively uncomplicated by any significant selective alpha-adrenergic blocking effect.” for “solutions.”

Setting [4] is: 0.3 mg./min., side-by-side comparison.
Where [5] appears, read: infusion rate 0.3 mg./min., side-by-side comparison in same animals.

The results in this text go back to patent US4243681A, “Alkylthiophenoxypropanolamines and pharmaceutical compositions and uses thereof” (priority 1979, dated 1981).

T1 sequence (Q8K4Z4 whole entry): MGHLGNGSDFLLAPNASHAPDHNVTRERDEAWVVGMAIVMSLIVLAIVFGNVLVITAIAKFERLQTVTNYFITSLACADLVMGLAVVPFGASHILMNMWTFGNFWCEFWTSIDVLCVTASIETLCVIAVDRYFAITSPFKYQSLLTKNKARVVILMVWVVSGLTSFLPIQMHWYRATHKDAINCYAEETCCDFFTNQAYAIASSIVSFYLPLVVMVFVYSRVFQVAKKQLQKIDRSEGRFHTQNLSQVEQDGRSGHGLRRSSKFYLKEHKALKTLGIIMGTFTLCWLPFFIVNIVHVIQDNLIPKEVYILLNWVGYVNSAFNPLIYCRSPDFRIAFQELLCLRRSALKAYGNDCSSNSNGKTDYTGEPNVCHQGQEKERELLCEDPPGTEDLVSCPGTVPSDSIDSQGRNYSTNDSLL

Consider `CCCCCCCCNCC(O)COc1ccc(SC(C)C)cc1.Cl` (stereo not shown) [Example 2, 1-[4-[(1-Methylethyl)thio]phenoxy]-3-(octylamino)-2-propanol Hydrochloride], for which the “red blood cell rigidity” value in the test with red blood cell is “decreased”. The “vasodilator effect relative to test agent A” value with perfused dog hind limb (setting [4]) is “approximately 3.2 times”. In addition, the “vasodilator effect relative to test agent B” value in the test on perfused dog hind limb (setting [4]) is ~21 times. For the same compound, the “Pressure Decrease” value with perfused dog hind limb (infusion rate 0.3 mg./min.) is given as -44 Millimeters of mercury; with perfused dog hind limb (setting [5]) it was -63 Millimeters of mercury; in the test with perfused dog hind limb (infusion rate 1.0 mg./min.) it was -99 Millimeters of mercury. The “basal tone of mesenteric arteries” value in the test with mesenteric arteries [1] and in the test on mesenteric arteries [3] was “elevated” throughout. Also, the “Antispasmodic Potency” value with rabbit thoracic aorta was determined as 0.6. Also, on adrenergic beta-receptor, the “Beta-Adrenergic Blocking Potency” value is reported as < 0.001. Further, the figures for the “local anesthetic activity vs. lidocaine” value in the test with rabbit eye and in the test on guinea pig skin were “greater than” and “as great as”, respectively. The “shortened platelet survival time” value with platelet survival is given as “normalized”. Further, the “ED50 ADP (inhibition of platelet aggregation)” value in [2] is on record as 56 Microgram/0.5 ml. plateletrich human plasma. Besides, the “ED50 Coll (inhibition of platelet aggregation)” value in [2] is 31 Microgram/0.5 ml. plateletrich human plasma.

Consider `CSc1ccc(OCC(O)CNC(C)C)cc1` (stereo not shown) [Test agent B, 1-(isopropylamino)-3-[4-(methylthio)phenoxy]-2-propanol, reference compound], for which, in the test on alpha-adrenergic, the “anti-alpha-adrenergic activity (in words)” value is “essentially inactive”. Also, the “pressure reduction (findings, range over compounds)” value with perfused dog hind limb (infusion dose 1.0 mg./min.) is on record as 27-29 mm Hg. In addition, the “Pressure Decrease” value in the test on perfused dog hind limb (setting [5]) is listed as -3 Millimeters of mercury. Moreover, the “Pressure Decrease” value in the test on perfused dog hind limb (infusion rate 1.0 mg./min., side-by-side comparison in same animals) is -29 Millimeters of mercury. Besides, in the test on rabbit thoracic aorta (potassium chloride-induced spasms), the “antispasmodic activity (in words)” value is on record as “relatively weak activity”. Moreover, in the test on rabbit thoracic aorta, the “Antispasmodic Potency” value worked out at 0.04. Besides, on adrenergic beta-receptor, the “beta-adrenergic blocking activity (in words)” value was “substantial activity” and the “Beta-Adrenergic Blocking Potency” value turned out to be 0.2. Further, in [2], the “ED50 ADP (inhibition of platelet aggregation)” value is 107 Microgram/0.5 ml. plateletrich human plasma and the “ED50 Coll (inhibition of platelet aggregation)” value was 28 Microgram/0.5 ml. plateletrich human plasma.
